Experimental data: ChEMBL document CHEMBL4765299 (Eur J Med Chem, 2020)
Activity calls are given as the source filed them. The rule behind the calls is not given here.

What was measured:
[1] = against A against n against t against i against p against r against o against l against i against f against e against r against a against t against i against v against e against a against c against t against i against v against i against t against y against a against g against a against i against n against s against t against h against u against m against a against n against K against 5 against 6 against 2 against c against e against l against l against s against a against s against s against e against s against s against e against d against a against s against r against e against d against u against c against t against i against o against n against i against n against c against e against l against l against v against i against a against b against i against l against i against t against y against m against e against a against s against u against r against e against d against a against f against t against e against r against 7 against 2 against h against r against s against b against y against M against T against T against a against s against s against a against y against; type: functional, tissue-based, Homo sapiens; settings: k562
[2] = against A against n against t against i against p against r against o against l against i against f against e against r against a against t against i against v against e against a against c against t against i against v against i against t against y against a against g against a against i against n against s against t against h against u against m against a against n against M against D against A against - against M against B against - against 2 against 3 against 1 against c against e against l against l against s against a against s against s against e against s against s against e against d against a against s against r against e against d against u against c against t against i against o against n against i against n against c against e against l against l against v against i against a against b against i against l against i against t against y against m against e against a against s against u against r against e against d against a against f against t against e against r against 7 against 2 against h against r against s against b against y against M against T against T against a against s against s against a against y against; type: functional, tissue-based, Homo sapiens; settings: mda-mb-231
[3] = test system: HepG2; experiment: Antiproliferative against human HepG2 cells assessed as reduction in cell viability measured after 72 hrs by MTT assay; type: functional, cell-based; settings: HepG2, 72 h
[4] = against C against y against t against o against t against o against x against i against c against i against t against y against a against g against a against i against n against s against t against h against u against m against a against n against H against F against L against - against 1 against c against e against l against l against s against a against s against s against e against s against s against e against d against a against s against r against e against d against u against c against t against i against o against n against i against n against c against e against l against l against v against i against a against b against i against l against i against t against y against m against e against a against s against u against r against e against d against a against f against t against e against r against 7 against 2 against h against r against s against b against y against M against T against T against a against s against s against a against y against; type: ADME, tissue-based; settings: Homo sapiens, HFL1
[5] = against A against n against t against i against p against r against o against l against i against f against e against r against a against t against i against v against e against a against c against t against i against v against i against t against y against a against g against a against i against n against s against t against h against u against m against a against n against H against C against T against - against 8 against c against e against l against l against s against a against s against s against e against s against s against e against d against a against s against r against e against d against u against c against t against i against o against n against i against n against c against e against l against l against v against i against a against b against i against l against i against t against y against m against e against a against s against u against r against e against d against a against f against t against e against r against 7 against 2 against h against r against s against b against y against M against T against T against a against s against s against a against y against; type: functional, tissue-based, Homo sapiens; settings: hct-8
[6] = test system: H22; experiment: Anti-tumor activity against mouse H22 cells allografted in ICR mice assessed as reduction in tumor weight at 6 mg/kg, iv administered every 2 days for 21 days; type: functional; settings: 504 h, time 21 day
[7] = species: Sus scrofa; experiment: Induction of porcine brain tubulin polymerization assessed as induction of microtubule assembly by measuring increase in absorbance at 10 uM measured for 60 mins by fluorescence based analysis; type: tissue-based
[8] = test system: H22; experiment: Antiproliferative activity against mouse H22 cells assessed as inhibition of cell growth by MTT assay; type: functional, cell-based
[9] = species: Sus scrofa; experiment: Displacement of [3H]colchicine from porcine brain tubulin at 5 uM incubated for 2 hrs by TopCount scintillation counting method relative to control; type: tissue-based
[10] = test system: K562; experiment: Induction of cell cycle arrest in human K562 cells assessed as accumulation at S phase at 6 nM incubated for 48 hrs by propidium iodide/RNase staining based flow cytometry (reference value: 53.42%); type: functional
[11] = test system: K562; experiment: Induction of cell cycle arrest in human K562 cells assessed as accumulation at G2/M phase at 3 nM incubated for 48 hrs by propidium iodide/RNase staining based flow cytometry (reference value: 7.83%); type: functional
[12] = test system: K562; experiment: Induction of cell cycle arrest in human K562 cells assessed as accumulation at G1 phase at 6 nM incubated for 48 hrs by propidium iodide/RNase staining based flow cytometry (reference value: 38.75%); type: functional
[13] = species: Sus scrofa; experiment: Displacement of [3H]colchicine from porcine brain tubulin at 1 uM incubated for 2 hrs by TopCount scintillation counting method relative to control; type: tissue-based
[14] = test system: H22; experiment: Anti-tumor activity against mouse H22 cells allografted in ICR mice assessed as reduction in tumor weight at 30 mg/kg, iv administered daily for 21 days; type: functional; settings: 504 h, time 21 day
[15] = test system: K562; experiment: Induction of cell cycle arrest in human K562 cells assessed as accumulation at G2/M phase at 12 nM incubated for 48 hrs by propidium iodide/RNase staining based flow cytometry (reference value: 7.83%); type: functional
[16] = test system: K562; experiment: Induction of cell cycle arrest in human K562 cells assessed as accumulation at S phase at 3 nM incubated for 48 hrs by propidium iodide/RNase staining based flow cytometry (reference value: 53.42%); type: functional
[17] = test system: K562; experiment: Induction of cell cycle arrest in human K562 cells assessed as accumulation at G2/M phase at 6 nM incubated for 48 hrs by propidium iodide/RNase staining based flow cytometry (reference value: 7.83%); type: functional
[18] = test system: K562; experiment: Induction of cell cycle arrest in human K562 cells assessed as accumulation at G1 phase at 12 nM incubated for 48 hrs by propidium iodide/RNase staining based flow cytometry (reference value: 38.75%); type: functional
[19] = test system: K562; experiment: Induction of cell cycle arrest in human K562 cells assessed as accumulation at S phase at 12 nM incubated for 48 hrs by propidium iodide/RNase staining based flow cytometry (reference value: 53.42%); type: functional
[20] = test system: K562; experiment: Induction of cell cycle arrest in human K562 cells assessed as accumulation at G1 phase at 3 nM incubated for 48 hrs by propidium iodide/RNase staining based flow cytometry (reference value: 38.75%); type: functional
[21] = Inhibition of porcine brain tubulin polymerization assessed as inhibition of microtubule assembly by measuring decrease in absorbance measured for 60 mins by fluorescence based analysis; type: tissue-based, Sus scrofa
[22] = test system: H22; experiment: Anti-tumor activity against mouse H22 cells allografted in ICR mice assessed as reduction in tumor weight at 15 mg/kg, iv administered daily for 21 days; type: functional; settings: 504 h, time 21 day

| SMILES | IC50 [1] [nM] | IC50 [2] [nM] | IC50 [3] [nM] | IC50 [4] [nM] | IC50 [5] [nM] | further results |
| --- | --- | --- | --- | --- | --- | --- |
| C=C(c1cc(OC)nc(OC)c1)c1cn(C)c2cc(OC)ccc12 | > 1000 | – | – | – | – | – |
| C=C(c1cc(N2CCCC2)nc(N2CCCC2)c1)c1ccc(OC)c(O)c1 | > 1000 | – | – | – | – | – |
| C=C(c1cc(N2CCOCC2)nc(N2CCOCC2)c1)c1ccc(OC)c(O)c1 | > 1000 | – | – | – | – | – |
| C=C(c1cc(OC)nc(OC)c1)c1c[nH]c2cc(OC)ccc12 | > 1000 | – | – | – | – | – |
| C=C(c1cc(OC)nc(OC)c1)c1ccc(OC)c(OC)c1 | > 1000 | – | – | – | – | – |
| C=C(c1cc(OC)nc(OC)c1)c1ccc2[nH]ccc2c1 | > 1000 | – | – | – | – | – |
| C=C(c1cc(OC)nc(OC)c1)c1ccc2c(c1)OCO2 | > 1000 | – | – | – | – | – |
| C=C(c1cc(Cl)nc(N(C)C)c1)c1ccc(OC)c(O)c1 | 16 | 29 | 27 | 114 | 29 | – |
| C=C(c1cc(OC)nc(OC)c1)c1cn(C)c2ccccc12 | > 1000 | – | – | – | – | – |
| C=C(c1cc(OC)nc(OC)c1)c1cccc2c1ccn2C | > 1000 | – | – | – | – | – |
| C=C(c1cc(Cl)nc(N2CCNCC2)c1)c1ccc(OC)c(O)c1 | > 1000 | – | – | – | – | – |
| CC(=O)O[C@H]1C(=O)[C@@]2(C)[C@H]([C@H](OC(=O)c3ccccc3)[C@]3(O)C[C@H](OC(=O)[C@H](O)[C@@H](NC(=O)c4ccccc4)c4ccccc4)C(C)=C1C3(C)C)[C@]1(OC(C)=O)CO[C@@H]1C[C@@H]2O [PACLITAXEL] | – | – | – | – | – | inhibition in vivo at 6 mg/kg [6]: 64.3%; Activity [7]: Active; IC50 [8]: 84 nM |
| C=C(c1cc(OC)nc(OC)c1)c1cc(OC)c(OC)c(OC)c1 | > 1000 | – | – | – | – | – |
| C=C(c1ccnc(C)c1)c1ccc(OC)c(O)c1 | 24 | 31 | 31 | 189 | 32 | – |
| C=C(c1cc(OC)nc(OC)c1)c1c[nH]c2ccccc12 | > 1000 | – | – | – | – | – |
| C=C(c1cc(C)nc(C)c1)c1ccc(OC)c(O)c1 | 12 | 29 | 27 | 86 | 31 | – |
| C=C(c1ccc(OC)c(O)c1)c1cc(OC)c(OC)c(OC)c1 | 6 | 12 | 10 | 86 | 10 | inhibition [9]: 84.6%; Activity [10]: 48.36%; Activity [11]: 11.45%; Activity [12]: 38.07%; inhibition [13]: 74%; inhibition in vivo at 30 mg/kg/day [14]: 66.9%; Activity [15]: 18.44%; Activity [16]: 51.37%; Activity [17]: 13.57%; IC50 [8]: 8 nM; Activity [18]: 36.01%; Activity [19]: 45.55%; Activity [20]: 37.19%; IC50 [21]: 2370 nM; inhibition in vivo at 15 mg/kg/day [22]: 56.6% |
| C=C(c1cc(OC)nc(OC)c1)c1ccc2c(ccn2C)c1 | 181 | 308 | 300 | 879 | 288 | – |
| C=C(c1cc(OC)nc(OC)c1)c1cccc2[nH]ccc12 | > 1000 | – | – | – | – | – |
| C=C(c1cc(OC)nc(OC)c1)c1ccc(OC)c(O)c1 | 44 | 84 | 77 | 792 | 86 | – |
| C=C(c1ccncc1)c1ccc(OC)c(O)c1 | 151 | 208 | 261 | 696 | 222 | – |
| C=C(c1cc(C)nc(C)c1)c1ccc2c(ccn2C)c1 | 21 | 34 | 30 | 176 | 31 | – |
